The values that follow come from publication PMC7316778 (Nature Communications, 2020).

pIC50: −log10 of the molar value. Values joined by “and” are separate entries in the source; they are usually repeats but may differ in a detail not shown here. Equal entries are not always repeated. Where two headings read alike, the source gives them in different places.

One assay concerns the target T1, CASK (Homo sapiens, UniProt O14936).
T1 sequence (O14936 1-926): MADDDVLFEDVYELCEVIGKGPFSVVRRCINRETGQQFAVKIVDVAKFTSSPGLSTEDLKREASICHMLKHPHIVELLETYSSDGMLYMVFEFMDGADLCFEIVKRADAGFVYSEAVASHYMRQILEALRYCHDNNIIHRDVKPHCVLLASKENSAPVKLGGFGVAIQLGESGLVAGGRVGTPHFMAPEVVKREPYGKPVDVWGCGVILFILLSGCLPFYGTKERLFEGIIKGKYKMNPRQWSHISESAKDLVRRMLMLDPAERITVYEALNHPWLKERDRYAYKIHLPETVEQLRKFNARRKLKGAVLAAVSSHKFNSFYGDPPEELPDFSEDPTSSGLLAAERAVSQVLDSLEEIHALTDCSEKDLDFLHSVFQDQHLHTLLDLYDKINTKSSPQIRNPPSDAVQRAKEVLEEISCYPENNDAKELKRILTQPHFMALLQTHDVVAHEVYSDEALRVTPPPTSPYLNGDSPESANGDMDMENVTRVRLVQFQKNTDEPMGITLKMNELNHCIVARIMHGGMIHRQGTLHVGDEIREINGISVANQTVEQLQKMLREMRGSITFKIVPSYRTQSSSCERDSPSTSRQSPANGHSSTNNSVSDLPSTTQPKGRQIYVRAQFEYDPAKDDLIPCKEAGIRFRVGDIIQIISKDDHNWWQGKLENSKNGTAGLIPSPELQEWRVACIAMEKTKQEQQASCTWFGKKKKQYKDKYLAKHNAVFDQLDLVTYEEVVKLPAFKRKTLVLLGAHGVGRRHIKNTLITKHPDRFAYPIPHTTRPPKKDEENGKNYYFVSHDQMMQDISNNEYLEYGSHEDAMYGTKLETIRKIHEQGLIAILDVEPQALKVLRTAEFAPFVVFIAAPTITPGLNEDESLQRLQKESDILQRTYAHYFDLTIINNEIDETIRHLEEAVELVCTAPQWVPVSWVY
As to the kind of experiment: SelectScreen kinase assay. To be noted: for Inhibition at 1 µM (%): CASK, LanthaScreen Binding. Background: TR-FRET usually uses a lanthanide donor and a delayed reading to cut background.

The target in another assay is DYRK1B (Homo sapiens, UniProt Q9Y463). As to the kind of experiment: SelectScreen kinase assay. As to conditions: 1 h, 1 μM WEL028, 1 h preincubation.
Assay [1] concerns the target FLT3 (Homo sapiens, UniProt P36888). Put plainly: SelectScreen kinase assay.
Description: (§1) Selectivity profiling assays were performed by the Invitrogen SelectScreen™ Services. […] The concentration of ATP was selected to be equal to the KM, unless indicated otherwise.
In assay [2] the test system is FLT3. Put plainly: SelectScreen kinase assay. As to conditions: IC50 on that kinase divided by IC50 on FES^S700C.
Description: as §1
Another assay concerns the target GSG2 (Haspin) (Homo sapiens, UniProt Q8TF76). Put plainly: SelectScreen kinase assay.
The next assay has as its target GSK3A (GSK3 alpha) (Homo sapiens, UniProt P49840). Put plainly: SelectScreen kinase assay.
Another assay deals with T2, HUNK (Homo sapiens, UniProt P57058).
T2 sequence (P57058 1-714): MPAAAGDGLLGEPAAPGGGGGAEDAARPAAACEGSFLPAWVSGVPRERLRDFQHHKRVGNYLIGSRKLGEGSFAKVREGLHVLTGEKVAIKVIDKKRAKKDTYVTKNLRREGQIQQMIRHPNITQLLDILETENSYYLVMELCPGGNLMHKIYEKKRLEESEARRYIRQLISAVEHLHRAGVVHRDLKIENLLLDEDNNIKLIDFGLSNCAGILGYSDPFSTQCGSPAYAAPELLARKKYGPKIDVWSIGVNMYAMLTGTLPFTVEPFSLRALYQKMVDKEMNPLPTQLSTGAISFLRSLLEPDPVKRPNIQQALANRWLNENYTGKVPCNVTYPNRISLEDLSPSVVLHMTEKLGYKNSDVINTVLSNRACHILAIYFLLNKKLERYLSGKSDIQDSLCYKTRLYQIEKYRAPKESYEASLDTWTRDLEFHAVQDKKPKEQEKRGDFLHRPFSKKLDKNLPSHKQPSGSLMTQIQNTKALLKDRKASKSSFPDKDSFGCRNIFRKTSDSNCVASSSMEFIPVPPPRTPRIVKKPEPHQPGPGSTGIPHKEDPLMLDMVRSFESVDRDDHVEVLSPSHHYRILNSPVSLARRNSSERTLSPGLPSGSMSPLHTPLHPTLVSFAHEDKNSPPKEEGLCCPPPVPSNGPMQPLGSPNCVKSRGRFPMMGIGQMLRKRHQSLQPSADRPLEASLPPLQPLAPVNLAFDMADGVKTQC
Put plainly: SelectScreen kinase assay.

Another assay has as its target MAP4K5 (KHS1) (Homo sapiens, UniProt Q9Y4K4). As to the kind of experiment: SelectScreen kinase assay. To be noted: 1 h, 1 μM WEL028, 1 h preincubation.
The next assay addresses PAK2 (PAK65) (Homo sapiens, UniProt Q13177). Put plainly: SelectScreen kinase assay.
In assay [3] the target is PIK3CB/PIK3R1 (p110 beta/p85 alpha) (Homo sapiens, UniProt P42338). As to the kind of experiment: SelectScreen kinase assay.
Description: as §1
In another assay the target is FES^S700C (Homo sapiens, UniProt P07332, S700C). Put plainly: In vitro TR-FRET kinase assay. It counts as biochemical. Further details: human FES cDNA encoding residues 448–822 or human FER cDNA encoding residues 448–820 was amplified by PCR; made in house; host or cells: E. coli BL21(DE3), co-expressing YopH phosphatase. As to conditions: IC50 on FES^WT divided by IC50 on FES^S700C.

Setting [4] is: 1 h, 1 μM WEL028, 1 h preincubation.

One may read the inhibition as the relative decrease from the control value, in per cent. Broadly, the Inhibition is the drop in the measured response relative to a control, in per cent. Usually pIC50 stands for the IC50 on a negative log10 scale, so that one unit is a factor of ten.

Chain of PIK3CB/PIK3R1 (p110 beta/p85 alpha) (P42338 whole entry, the tested form may be a part): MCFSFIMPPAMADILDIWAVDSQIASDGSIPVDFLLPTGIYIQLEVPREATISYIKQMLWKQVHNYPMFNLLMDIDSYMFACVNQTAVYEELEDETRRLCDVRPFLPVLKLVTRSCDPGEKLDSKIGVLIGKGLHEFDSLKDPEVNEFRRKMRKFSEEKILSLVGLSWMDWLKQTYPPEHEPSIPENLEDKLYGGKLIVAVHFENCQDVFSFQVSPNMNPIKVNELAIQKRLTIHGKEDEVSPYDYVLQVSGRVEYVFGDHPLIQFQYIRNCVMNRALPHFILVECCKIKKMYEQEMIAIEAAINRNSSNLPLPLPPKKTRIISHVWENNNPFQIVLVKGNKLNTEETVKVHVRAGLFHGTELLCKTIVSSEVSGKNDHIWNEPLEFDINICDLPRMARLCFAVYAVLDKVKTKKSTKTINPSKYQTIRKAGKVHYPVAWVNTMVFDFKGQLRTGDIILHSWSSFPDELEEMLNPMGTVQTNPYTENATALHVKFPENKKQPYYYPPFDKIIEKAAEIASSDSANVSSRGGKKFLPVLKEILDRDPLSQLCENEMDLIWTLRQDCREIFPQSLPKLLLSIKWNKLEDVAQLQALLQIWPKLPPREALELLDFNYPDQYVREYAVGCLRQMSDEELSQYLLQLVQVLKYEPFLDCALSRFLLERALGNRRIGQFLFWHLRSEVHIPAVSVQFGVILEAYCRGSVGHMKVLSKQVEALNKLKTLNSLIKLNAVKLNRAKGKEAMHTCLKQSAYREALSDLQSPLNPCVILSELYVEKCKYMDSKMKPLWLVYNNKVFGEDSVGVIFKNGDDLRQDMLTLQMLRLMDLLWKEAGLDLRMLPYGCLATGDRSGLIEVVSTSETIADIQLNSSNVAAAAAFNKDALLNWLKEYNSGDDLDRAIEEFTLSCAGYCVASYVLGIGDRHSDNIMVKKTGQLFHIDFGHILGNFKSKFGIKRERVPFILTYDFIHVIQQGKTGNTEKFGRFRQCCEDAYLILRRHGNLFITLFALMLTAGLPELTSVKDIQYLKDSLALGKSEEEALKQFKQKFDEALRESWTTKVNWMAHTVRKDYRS
Chain of PIK3CB/PIK3R1 (p110 beta/p85 alpha) (P27986 whole entry partner, the tested form may be a part): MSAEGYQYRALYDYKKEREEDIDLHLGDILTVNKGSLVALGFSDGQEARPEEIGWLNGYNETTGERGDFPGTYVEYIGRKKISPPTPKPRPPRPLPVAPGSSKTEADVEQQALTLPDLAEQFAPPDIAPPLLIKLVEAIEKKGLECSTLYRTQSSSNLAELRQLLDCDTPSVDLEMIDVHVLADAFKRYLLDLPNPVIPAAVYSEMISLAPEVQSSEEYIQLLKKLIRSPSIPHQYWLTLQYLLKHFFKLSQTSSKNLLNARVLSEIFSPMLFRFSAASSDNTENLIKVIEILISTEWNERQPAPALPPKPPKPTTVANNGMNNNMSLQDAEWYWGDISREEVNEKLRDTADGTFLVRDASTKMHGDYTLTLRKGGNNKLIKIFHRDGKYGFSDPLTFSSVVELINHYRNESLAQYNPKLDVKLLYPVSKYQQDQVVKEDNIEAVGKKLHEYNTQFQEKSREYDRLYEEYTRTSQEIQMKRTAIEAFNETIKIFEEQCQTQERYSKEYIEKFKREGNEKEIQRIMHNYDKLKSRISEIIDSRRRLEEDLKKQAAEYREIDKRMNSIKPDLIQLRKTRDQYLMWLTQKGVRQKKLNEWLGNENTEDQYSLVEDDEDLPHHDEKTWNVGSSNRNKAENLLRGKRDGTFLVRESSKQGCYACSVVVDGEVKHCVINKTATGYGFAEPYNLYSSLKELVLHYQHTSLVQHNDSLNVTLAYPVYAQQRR
Chain of FLT3 (Homo sapiens, UniProt P36888) (P36888 27-993, species assumed): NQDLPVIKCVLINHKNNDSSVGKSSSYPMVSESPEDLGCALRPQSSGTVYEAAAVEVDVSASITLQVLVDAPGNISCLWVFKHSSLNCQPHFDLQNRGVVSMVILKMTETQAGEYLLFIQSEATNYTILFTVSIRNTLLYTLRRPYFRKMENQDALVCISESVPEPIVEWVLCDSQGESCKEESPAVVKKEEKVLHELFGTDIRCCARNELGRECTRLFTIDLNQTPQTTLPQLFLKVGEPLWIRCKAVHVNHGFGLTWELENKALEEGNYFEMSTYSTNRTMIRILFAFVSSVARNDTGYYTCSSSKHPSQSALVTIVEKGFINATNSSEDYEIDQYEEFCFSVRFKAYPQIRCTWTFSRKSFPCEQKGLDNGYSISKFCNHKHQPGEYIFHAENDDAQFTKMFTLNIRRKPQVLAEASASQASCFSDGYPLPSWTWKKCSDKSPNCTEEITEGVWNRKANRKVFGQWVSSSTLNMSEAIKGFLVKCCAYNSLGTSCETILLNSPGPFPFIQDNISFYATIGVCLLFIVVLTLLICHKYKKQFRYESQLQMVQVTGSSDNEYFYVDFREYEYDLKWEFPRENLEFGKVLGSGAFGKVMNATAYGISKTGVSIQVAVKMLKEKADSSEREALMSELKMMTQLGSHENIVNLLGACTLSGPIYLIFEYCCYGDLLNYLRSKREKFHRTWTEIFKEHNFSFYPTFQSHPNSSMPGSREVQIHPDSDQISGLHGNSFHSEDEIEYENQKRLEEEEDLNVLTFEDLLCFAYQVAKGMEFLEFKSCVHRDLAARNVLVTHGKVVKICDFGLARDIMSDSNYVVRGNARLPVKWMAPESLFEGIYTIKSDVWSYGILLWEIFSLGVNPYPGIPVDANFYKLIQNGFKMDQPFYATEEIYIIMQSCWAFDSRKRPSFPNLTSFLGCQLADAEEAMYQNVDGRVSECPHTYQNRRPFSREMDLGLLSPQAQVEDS
Chain of GSK3A (GSK3 alpha) (P49840 whole entry): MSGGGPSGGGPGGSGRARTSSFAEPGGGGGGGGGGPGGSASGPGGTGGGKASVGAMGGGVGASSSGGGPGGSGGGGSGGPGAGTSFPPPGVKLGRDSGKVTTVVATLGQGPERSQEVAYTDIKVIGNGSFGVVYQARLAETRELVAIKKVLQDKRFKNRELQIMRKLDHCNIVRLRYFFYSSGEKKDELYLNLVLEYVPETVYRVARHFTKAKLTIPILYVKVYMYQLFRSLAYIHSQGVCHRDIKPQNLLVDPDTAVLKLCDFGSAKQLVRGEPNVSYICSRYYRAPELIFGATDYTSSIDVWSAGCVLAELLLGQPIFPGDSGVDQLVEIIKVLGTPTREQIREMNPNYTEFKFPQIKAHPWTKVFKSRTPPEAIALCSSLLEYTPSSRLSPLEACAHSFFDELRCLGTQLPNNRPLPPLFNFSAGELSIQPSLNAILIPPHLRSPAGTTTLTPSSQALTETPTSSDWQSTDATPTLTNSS
Chain of PAK2 (PAK65) (Q13177 whole entry): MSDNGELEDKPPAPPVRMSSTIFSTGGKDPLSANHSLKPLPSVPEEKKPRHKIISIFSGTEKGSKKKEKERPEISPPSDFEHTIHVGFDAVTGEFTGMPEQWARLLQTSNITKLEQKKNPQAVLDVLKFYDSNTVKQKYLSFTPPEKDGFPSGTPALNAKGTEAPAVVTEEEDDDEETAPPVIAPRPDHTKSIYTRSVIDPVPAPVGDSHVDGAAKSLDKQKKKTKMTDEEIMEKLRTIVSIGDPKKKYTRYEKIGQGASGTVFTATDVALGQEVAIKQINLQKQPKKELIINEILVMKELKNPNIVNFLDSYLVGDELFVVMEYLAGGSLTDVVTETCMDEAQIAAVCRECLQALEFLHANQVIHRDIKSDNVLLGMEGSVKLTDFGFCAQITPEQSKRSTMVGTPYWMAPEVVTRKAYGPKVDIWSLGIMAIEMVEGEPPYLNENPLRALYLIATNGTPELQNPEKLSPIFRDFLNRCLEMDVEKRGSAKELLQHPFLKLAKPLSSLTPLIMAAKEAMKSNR
Chain of GSG2 (Haspin) (Q8TF76 whole entry): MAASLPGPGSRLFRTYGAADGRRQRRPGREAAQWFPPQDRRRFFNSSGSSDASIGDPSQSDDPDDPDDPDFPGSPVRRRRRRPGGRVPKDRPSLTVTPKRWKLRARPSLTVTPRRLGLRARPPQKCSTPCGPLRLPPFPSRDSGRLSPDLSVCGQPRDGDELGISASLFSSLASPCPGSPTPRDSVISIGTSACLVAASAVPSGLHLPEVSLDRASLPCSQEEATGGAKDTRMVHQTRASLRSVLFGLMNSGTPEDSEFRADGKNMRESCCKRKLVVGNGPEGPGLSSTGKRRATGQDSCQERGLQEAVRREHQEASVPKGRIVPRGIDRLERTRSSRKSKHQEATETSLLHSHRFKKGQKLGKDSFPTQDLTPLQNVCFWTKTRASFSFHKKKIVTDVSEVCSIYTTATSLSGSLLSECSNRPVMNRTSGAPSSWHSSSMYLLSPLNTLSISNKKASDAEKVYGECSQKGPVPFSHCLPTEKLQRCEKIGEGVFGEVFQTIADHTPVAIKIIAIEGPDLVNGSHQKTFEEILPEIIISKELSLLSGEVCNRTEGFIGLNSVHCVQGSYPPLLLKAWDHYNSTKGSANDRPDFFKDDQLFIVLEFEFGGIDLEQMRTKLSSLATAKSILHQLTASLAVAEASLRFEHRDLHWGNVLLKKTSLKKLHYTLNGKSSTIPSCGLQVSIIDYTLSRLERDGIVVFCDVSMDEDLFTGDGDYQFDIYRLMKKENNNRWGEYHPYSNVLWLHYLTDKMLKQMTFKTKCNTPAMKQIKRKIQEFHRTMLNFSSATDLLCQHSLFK
Chain of FES^S700C (P07332 448-822 S700C): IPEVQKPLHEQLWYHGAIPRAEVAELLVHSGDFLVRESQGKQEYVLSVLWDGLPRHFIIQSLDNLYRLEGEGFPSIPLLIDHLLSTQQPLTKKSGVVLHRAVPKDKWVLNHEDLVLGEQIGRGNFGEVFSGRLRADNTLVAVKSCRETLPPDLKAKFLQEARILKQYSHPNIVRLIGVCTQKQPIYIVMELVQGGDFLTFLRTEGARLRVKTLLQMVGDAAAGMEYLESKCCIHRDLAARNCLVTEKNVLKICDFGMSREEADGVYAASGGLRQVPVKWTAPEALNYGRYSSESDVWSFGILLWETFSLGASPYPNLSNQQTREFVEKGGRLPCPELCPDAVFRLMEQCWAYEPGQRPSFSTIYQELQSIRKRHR
Description for CASK: as §1
Description for DYRK1B: as §1
Description for GSG2 (Haspin): as §1
Description for GSK3A (GSK3 alpha): as §1
Description for HUNK: as §1
Description for MAP4K5 (KHS1): as §1
Description for PAK2 (PAK65): as §1

Turning to `C#CCOc1ccc(Nc2ncc(Cl)c(Nc3ccccc3NC(=O)C=C)n2)c(OC)c1` [Compound 6], the inhibition at 1 µM against CASK (setting [4]) was -7%; on DYRK1B, 0%; against FLT3 [1] (setting [4]), 61%; at FLT3 [1] (read-out: Inhibition at 1 µM (%), FLT3, 1 µM, ZLYTE, ATP Km app), 64%; at GSG2 (Haspin) (setting [4]) it was 6%; against GSK3A (GSK3 alpha) (setting [4]) it was 6%. In addition, the inhibition at 1 µM on GSK3A (GSK3 alpha) (read-out: Inhibition at 1 µM (%), GSK3A (GSK3 alpha), 1 µM, ZLYTE, ATP Km app) is 5%; on HUNK (setting [4]), 20%; on HUNK (read-out: Inhibition at 1 µM (%), HUNK, 1 µM, LanthaScreen Binding), 19%; at MAP4K5 (KHS1), -5%; at PAK2 (PAK65) (setting [4]), 29%; on PAK2 (PAK65) (read-out: Inhibition at 1 µM (%), PAK2 (PAK65), 1 µM, ZLYTE, ATP Km app) it was 35%. The inhibition at 1 µM in [3] (setting [4]) is -8%. Further, the “Inhibition at 1 µM (%)” value at CASK is recorded as -11%; on CASK (listed as WEL028, 1 µM), -4%; on FLT3 [1] (FLT3, 1 µM, ZLYTE, ATP Km app, listed as WEL028, 1 µM) it was 58%; at GSG2 (Haspin) (GSG2 (Haspin), 1 µM, Adapta, ATP Km app), 20%; at GSK3A (GSK3 alpha) (GSK3A (GSK3 alpha), 1 µM, ZLYTE, ATP Km app, listed as WEL028, 1 µM), 7%; on HUNK (HUNK, 1 µM, LanthaScreen Binding, listed as WEL028, 1 µM) it was 21%. Moreover, the “Inhibition at 1 µM (%)” value on PAK2 (PAK65) (PAK2 (PAK65), 1 µM, ZLYTE, ATP Km app, listed as WEL028, 1 µM) was 23%; in assay [3] (PIK3CB/PIK3R1 (p110 beta/p85 alpha), 1 µM, Adapta, ATP Km app, listed as WEL028, 1 µM), -10% and -7%. Also, the pIC50 at FLT3 [1] was 5.50. Further, the Apparent fold selectivity in the assay with FLT3 [2] is given as 718 fold; on FES^S700C, 232 fold.
